Patent US20240246918A1, “COMPOUNDS AND COMPOSITIONS AS EIF4E INHIBITORS AND THE USES THEREOF” (Ribometrix, Inc., priority 2022, published 2024)
Like-named read-outs stand apart in the source and are kept apart here.

Columns and labels:
human eIF4E protein = molecular target: T1, human eIF4E protein (Homo sapiens, UniProt P06730); test: Biochemical competitive binding assay (TR-FRET competition, EDA-m7GDP-ATTO-647N probe); settings: read-out: hEIF4E TR-FRET IC50
T1 construct: purchased Novus NBP-45314
T1 sequence (P06730 whole entry): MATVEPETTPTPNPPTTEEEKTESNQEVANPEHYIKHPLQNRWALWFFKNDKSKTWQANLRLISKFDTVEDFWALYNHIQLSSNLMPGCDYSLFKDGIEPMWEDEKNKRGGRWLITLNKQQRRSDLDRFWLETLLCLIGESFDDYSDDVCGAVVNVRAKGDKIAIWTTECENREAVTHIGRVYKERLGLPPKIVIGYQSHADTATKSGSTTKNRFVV
How it was run: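 His-tagged human eIF4E (4 nM) was preincubated with Eu-anti-His antibody (2.5 nM) and added to compound (11-point, 4-fold dilutions) for 15 min. Then 5 nM EDA-m7GDP-ATTO-647N was added for 15 min, in HEPES pH 7.5, 100 mM KCl. The 665/620 TR-FRET ratio was normalized to controls, and IC50 was taken from 4-parameter fits.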

[1] = tested on: cap-dependent translation in Flp-In-293 reporter cells; test: Cellular cap-dependent translation inhibition assay (dual luciferase assay, DLA; Fluc/Rluc ratio, 24 hours); type: cell-based; settings: dual luciferase assay, Flp-In-293 reporter cells, 24 hours, Fluc/Rluc ratio, read-out: DLA 205 IC50
[2] = tested on: COLO 205 colorectal tumor cells; test: Tumor cell viability inhibition assay (CellTiter-Glo 2.0, 72 hours); type: cell-based; settings: COLO 205 cell viability
How it was run: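 COLO 205 cells (1500/well, RPMI-1640 + 10% FBS) exposed for 72 h to an 11-point, 4-fold dilution series; cellular ATP read by CellTiter-Glo 2.0 luminescence. Data normalized to DMSO and maximum-inhibition controls; IC50 from 4-parameter curve fit.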

[3] = tested on: cyclin D1 protein levels in COLO 205 cells; test: Cyclin D1 cellular inhibition assay (HTRF, 6 hours); type: cell-based; settings: 6 hours of compound treatment, Cyclin D1 protein levels by HTRF, read-out: COLO 205 6 h Cyclin D1 TR-FRET IC50
How it was run: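 COLO 205 cells in RPMI-1640 with 10% FBS treated 6 h with 11-point compound dilutions at 1% DMSO final. Lysates assayed for cyclin D1 by HTRF. Signal normalized to DMSO and maximum-inhibition controls, with IC50 from 4-parameter fit.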

Row | IC50 (human eIF4E protein) [µM] | IC50 [2] [µM] | IC50 [3] [µM] | IC50 ([2]; Homo sapiens, COLO 205, 72 h) [µM] | IC50 ([3]; Homo sapiens, COLO 205, 6 h) [µM] | SMILES | IC50 [1] [µM] | IC50 ([1]; Homo sapiens, Flp-In-293, 24 h) [µM]
1 | < 0.1 | < 5 | 5 to 20 |  |  | Cc1cc(-c2cc(Cl)ccc2OCCn2c(C)nc3c(c2=O)CC(N(CC2CC(F)(F)C2)C2CC2)CC3)c2scc(C(=O)NS(C)(=O)=O)c2n1 (single isomer, unassigned) [Compound 261] | < 1 | 
2 | < 0.1 | < 5 | < 5 |  |  | Cc1cc(-c2cc(Cl)ccc2OCCn2c(C)nc3c(c2=O)CC(N(CC2CC(F)(F)C2)C2CC2)CC3)c2scc(C(=O)O)c2n1 (single isomer, unassigned) [Compound 263] | < 1 | 
3 | < 0.1 |  |  | < 5 | < 5 | Cc1nc2c(c(=O)n1CC#Cc1ccc(Cl)cc1-c1ccnc3c(C(=O)O)csc13)C[C@H](N1CC[C@@H](F)C1)CC2 (single isomer, unassigned) [Compound 326] |  | < 1
4 | < 0.1 |  |  | < 5 | < 5 | Cc1cc(-c2cc(Cl)ccc2OCCn2c(C)nc3c(c2=O)C[C@H](N2CC[C@@H](F)C2)CC3)c2scc(C(=O)O)c2n1 (single isomer, unassigned) [Compound 328] |  | < 1
5 | < 0.1 |  |  | 5 to 20 | 5 to 20 | Cc1nc2c(c(=O)n1CCOc1ccc(Cl)cc1-c1cccc(C(=O)O)c1)CC(N(C)C)CC2 (centres unmarked) [Compound 1, 3-[5-chloranyl-2-[2-[6-[di(methyl)amino]-2-methyl-4-oxidanylidene-5,6,7,8-tetrahydroquinazolin-3-yl]ethoxy]phenyl]benzoic acid] |  | < 1
6 | < 0.1 |  |  | < 5 | < 5 | Cc1cc(-c2cc(Cl)ccc2OCCn2c(C)nc3c(c2=O)CC(N(C)C)CC3)c2scc(C(=O)O)c2n1 (centres unmarked) [Compound 3, 7-[5-chloranyl-2-[2-[6-[di(methyl)amino]-2-methyl-4-oxidanylidene-5,6,7,8-tetrahydroquinazolin-3-yl]ethoxy]phenyl]-5-methyl-thieno[3,2-b]pyridine-3-carboxylic acid; 2,2,2-tris(fluorenyl)acetic acid] |  | < 1
7 | < 0.1 |  |  | < 5 | < 5 | Cc1cc(-c2cc(Cl)ccc2OCCn2c(C)nc3c(c2=O)CC(N2CCCCC2)CC3)c2scc(C(=O)O)c2n1 (centres unmarked) [Compound 11] |  | < 1
8 | < 0.1 |  |  | < 5 | < 5 | Cc1cc(-c2cc(Cl)ccc2OCCn2c(C)nc3c(c2=O)CC(N(C)CC2(C)COC2)CC3)c2scc(C(=O)O)c2n1 (centres unmarked) [Compound 18] |  | < 1
9 | < 0.1 |  |  | < 5 | < 5 | Cc1cc(-c2cc(Cl)ccc2OCCn2c(C)nc3c(c2=O)CC(N2CCCCC2)CC3)c2scc(C(=O)NS(C)(=O)=O)c2n1 (centres unmarked) [Compound 31] |  | < 1
10 | < 0.1 |  |  | < 5 | < 5 | Cc1cc(-c2cc(Cl)ccc2OCCn2c(C)nc3c(c2=O)CC(N(C)C2CC2)CC3)c2scc(C(=O)O)c2n1 (centres unmarked) [Compound 46] |  | < 1
11 | < 0.1 |  |  | < 5 | < 5 | Cc1cc(-c2cc(Cl)ccc2OCCn2c(C)nc3c(c2=O)CC(N(C)C2CC2)CC3)c2scc(C(=O)NS(C)(=O)=O)c2n1 (centres unmarked) [Compound 51] |  | < 1
